ChEMBL document CHEMBL3885861, “Open TG-GATES”

Species: Rattus norvegicus
Assay: Open TG-GATES - Regimen: Daily Repeat
Type: toxicity, organism-based, Sprague-Dawley
Parameters: regimen Daily Repeat, gender Male, age 6 weeks
Conditions: in vivo, po, 60 mg/kg, route gavage, dose level Low; for APTT / Bas / Eos / Fbg / Hb / Ht / Lym / MCH / MCHC / MCV / Mono / Neu / PT / Plat / RBC / Ret / WBC: tissue Blood; for KIDNEY_L / KIDNEY_R / KIDNEY_TOTAL: tissue Kidney; for LIVER: tissue Liver; for A/G / ALP / ALT / AST / BUN / CRE / Ca / Cl / DBIL / GLC / IP / K / LDH / Na / PL / RALB / TBIL / TC / TG / TP / gamma-GTP: tissue Plasma

CCOC(=O)[C@H](CCc1ccccc1)N[C@@H](C)C(=O)N1CCC[C@H]1C(=O)O
TERMINAL_BW (72 h, time 3 day): 243.2 g | APTT (72 h, time 3 day): 16.2 s | Bas (72 h, time 3 day): 0% | Eos (72 h, time 3 day): 0.8% | Fbg (72 h, time 3 day): 233.6 mg/dL | Hb (72 h, time 3 day): 13.1 g/dL | Ht (72 h, time 3 day): 39.8% | Lym (72 h, time 3 day): 82.6% | MCH (72 h, time 3 day): 21.3 pg | MCHC (72 h, time 3 day): 32.9% | MCV (72 h, time 3 day): 64.8 fL | Mono (72 h, time 3 day): 5.2% | Neu (72 h, time 3 day): 11.4% | PT (72 h, time 3 day): 11.6 s | Plat (72 h, time 3 day): 124.4 x10_4/uL | RBC (72 h, time 3 day): 614.6 x10_4/ul | Ret (72 h, time 3 day): 5.5% | WBC (72 h, time 3 day): 105.6 x10_2/uL | KIDNEY_L (72 h, time 3 day): 1.1 g | KIDNEY_R (72 h, time 3 day): 1.1 g | KIDNEY_TOTAL (72 h, time 3 day): 2.2 g | LIVER (72 h, time 3 day): 11.8 g | A/G (72 h, time 3 day): 2 | ALP (72 h, time 3 day): 985.6 IU/L | ALT (72 h, time 3 day): 32.8 IU/L | AST (72 h, time 3 day): 63.2 IU/L | BUN (72 h, time 3 day): 20.2 mg/dL | CRE (72 h, time 3 day): 0.5 mg/dL | Ca (72 h, time 3 day): 10.9 mg/dL | Cl (72 h, time 3 day): 105.8 meq/L | DBIL (72 h, time 3 day): 0.028 mg/dL | GLC (72 h, time 3 day): 189.2 mg/dL | IP (72 h, time 3 day): 8 mg/dL | K (72 h, time 3 day): 5 meq/L | LDH (72 h, time 3 day): 90.6 IU/L | Na (72 h, time 3 day): 140.2 meq/L | PL (72 h, time 3 day): 160 mg/dL | RALB (72 h, time 3 day): 4 g/dL | TBIL (72 h, time 3 day): 0.3 mg/dL | TC (72 h, time 3 day): 81 mg/dL | TG (72 h, time 3 day): 93 mg/dL | TP (72 h, time 3 day): 6.1 g/dL | gamma-GTP (72 h, time 3 day): 2 IU/L | TERMINAL_BW ([…], time 7 day): 259.7 g | TERMINAL_BW ([…], time 14 day): 311.1 g | TERMINAL_BW ([…], time 28 day): 389.4 g | APTT ([…], time 7 day): 15.6 s | Bas ([…], time 7 day): 0% | Eos ([…], time 7 day): 0.6% | Fbg ([…], time 7 day): 232 mg/dL | Hb ([…], time 7 day): 13.5 g/dL | Ht ([…], time 7 day): 40.7% | Lym ([…], time 7 day): 84.6% | MCH ([…], time 7 day): 20.6 pg | MCHC ([…], time 7 day): 33.2% | MCV ([…], time 7 day): 61.9 fL | Mono ([…], time 7 day): 5% | Neu ([…], time 7 day): 9.2% | PT ([…], time 7 day): 11.6 s | Plat ([…], time 7 day): 124.1 x10_4/uL | RBC ([…], time 7 day): 658.4 x10_4/ul | Ret ([…], time 7 day): 4.8% | WBC ([…], time 7 day): 134.2 x10_2/uL | APTT ([…], time 14 day): 16.1 s | Bas ([…], time 14 day): 0% | Eos ([…], time 14 day): 1.2% | Fbg ([…], time 14 day): 247.4 mg/dL | Hb ([…], time 14 day): 14.3 g/dL | Ht ([…], time 14 day): 43% | Lym ([…], time 14 day): 76% | MCH ([…], time 14 day): 20.1 pg | MCHC ([…], time 14 day): 33.2% | MCV ([…], time 14 day): 60.7 fL | Mono ([…], time 14 day): 6.6% | Neu ([…], time 14 day): 16.2% | PT ([…], time 14 day): 11.3 s | Plat ([…], time 14 day): 118.7 x10_4/uL | RBC ([…], time 14 day): 710.6 x10_4/ul | Ret ([…], time 14 day): 3.5% | WBC ([…], time 14 day): 107.1 x10_2/uL | APTT ([…], time 28 day): 16.8 s | Bas ([…], time 28 day): 0% | Eos ([…], time 28 day): 1% | Fbg ([…], time 28 day): 252.6 mg/dL | Hb ([…], time 28 day): 15.1 g/dL | Ht ([…], time 28 day): 45.4% | Lym ([…], time 28 day): 85.6% | MCH ([…], time 28 day): 19.3 pg | MCHC ([…], time 28 day): 33.3% | MCV ([…], time 28 day): 58 fL | Mono ([…], time 28 day): 4.4% | Neu ([…], time 28 day): 8.8% | PT ([…], time 28 day): 11.6 s | Plat ([…], time 28 day): 108.6 x10_4/uL | RBC ([…], time 28 day): 782.8 x10_4/ul | Ret ([…], time 28 day): 3.5% | WBC ([…], time 28 day): 132.2 x10_2/uL | KIDNEY_L ([…], time 7 day): 1.1 g | KIDNEY_R ([…], time 7 day): 1.1 g | KIDNEY_TOTAL ([…], time 7 day): 2.3 g | KIDNEY_L ([…], time 14 day): 1.3 g | KIDNEY_R ([…], time 14 day): 1.3 g | KIDNEY_TOTAL ([…], time 14 day): 2.5 g | KIDNEY_L ([…], time 28 day): 1.5 g | KIDNEY_R ([…], time 28 day): 1.5 g | KIDNEY_TOTAL ([…], time 28 day): 3 g | LIVER ([…], time 7 day): 12.2 g | LIVER ([…], time 14 day): 13.6 g | LIVER ([…], time 28 day): 16.3 g | A/G ([…], time 7 day): 2.1 | ALP ([…], time 7 day): 880.6 IU/L | ALT ([…], time 7 day): 32.6 IU/L | AST ([…], time 7 day): 61.8 IU/L | BUN ([…], time 7 day): 21.2 mg/dL | CRE ([…], time 7 day): 0.6 mg/dL | Ca ([…], time 7 day): 10.9 mg/dL | Cl ([…], time 7 day): 104 meq/L | DBIL ([…], time 7 day): 0.002 mg/dL | GLC ([…], time 7 day): 209.2 mg/dL | IP ([…], time 7 day): 8.6 mg/dL | K ([…], time 7 day): 5 meq/L | LDH ([…], time 7 day): 116.2 IU/L | Na ([…], time 7 day): 138 meq/L | PL ([…], time 7 day): 168.4 mg/dL | RALB ([…], time 7 day): 4 g/dL | TBIL ([…], time 7 day): 0.3 mg/dL | TC ([…], time 7 day): 88.8 mg/dL | TG ([…], time 7 day): 121.2 mg/dL | TP ([…], time 7 day): 5.9 g/dL | gamma-GTP ([…], time 7 day): 1 IU/L | A/G ([…], time 14 day): 1.8 | ALP ([…], time 14 day): 821.6 IU/L | ALT ([…], time 14 day): 34.4 IU/L | AST ([…], time 14 day): 65.2 IU/L | BUN ([…], time 14 day): 24.4 mg/dL | CRE ([…], time 14 day): 0.6 mg/dL | Ca ([…], time 14 day): 10.8 mg/dL | Cl ([…], time 14 day): 106 meq/L | DBIL ([…], time 14 day): 0 mg/dL | GLC ([…], time 14 day): 199.2 mg/dL | IP ([…], time 14 day): 8.4 mg/dL | K ([…], time 14 day): 5 meq/L | LDH ([…], time 14 day): 105.2 IU/L | Na ([…], time 14 day): 138.4 meq/L | PL ([…], time 14 day): 155.4 mg/dL | RALB ([…], time 14 day): 4 g/dL | TBIL ([…], time 14 day): 0.3 mg/dL | TC ([…], time 14 day): 73.2 mg/dL | TG ([…], time 14 day): 113.2 mg/dL | TP ([…], time 14 day): 6.3 g/dL | gamma-GTP ([…], time 14 day): 1.4 IU/L | A/G ([…], time 28 day): 1.8 | ALP ([…], time 28 day): 658.6 IU/L | ALT ([…], time 28 day): 31.6 IU/L | AST ([…], time 28 day): 61.4 IU/L | BUN ([…], time 28 day): 20.8 mg/dL | CRE ([…], time 28 day): 0.6 mg/dL | Ca ([…], time 28 day): 10.8 mg/dL | Cl ([…], time 28 day): 105.8 meq/L | DBIL ([…], time 28 day): 0.046 mg/dL | GLC ([…], time 28 day): 198.6 mg/dL | IP ([…], time 28 day): 7.3 mg/dL | K ([…], time 28 day): 4.8 meq/L | LDH ([…], time 28 day): 66.4 IU/L | Na ([…], time 28 day): 137.6 meq/L | PL ([…], time 28 day): 144.4 mg/dL | RALB ([…], time 28 day): 4.1 g/dL | TBIL ([…], time 28 day): 0.3 mg/dL | TC ([…], time 28 day): 69.2 mg/dL | TG ([…], time 28 day): 90.2 mg/dL | TP ([…], time 28 day): 6.4 g/dL | gamma-GTP ([…], time 28 day): 1.2 IU/L
